Where a SMILES comes first, the peptide text is derived from it. Bridges are numbered along the chain shown (N, C = ends).
Experiments:
[1] = test system: RPMI-8226; experiment: Cytotoxicity against human RPMI8226/S cells after 72 hrs by trypan blue exclusion method; type: functional, cell-based
[2] = test system: U-937/GTB; experiment: Cytotoxicity against human U937/GTB cells after 72 hrs by trypan blue exclusion method; type: functional, cell-based

SMILES | IC50 ([1]; Homo sapiens, RPMI8226/S, 72 h) [nM] | IC50 ([2]; Homo sapiens, U-937/GTB, 72 h) [nM] | IC50 ([1]; rpmi8226/s) [nM] | IC50 ([2]; u-937/gtb) [nM]
CC(C)C[C@@H]1NC(=O)CNC(=O)[C@H](CC(N)=O)NC(=O)[C@H](CCCNC(=N)N)NC(=O)[C@H]([C@@H](C)O)NC(=O)[C@@H]2CSSC[C@@H]3NC(=O)[C@H]([C@@H](C)O)NC(=O)CNC(=O)CNC(=O)[C@H](C(C)C)NC(=O)[C@@H](NC(=O)[C@@H](NC(=O)[C@H](CCC(=O)O)NC(=O)CN)[C@@H](C)O)CSSC[C@H](NC(=O)[C@H](CO)NC(=O)[C@H](CSSC[C@@H](C(=O)O)NC(=O)[C@H](C(C)C)NC(=O)[C@@H]4CCCN4C1=O)NC(=O)CNC(=O)[C@@H]1CCCN1C(=O)[C@H]([C@@H](C)O)NC(=O)[C@H](CC(N)=O)NC3=O)C(=O)N[C@@H](CO)C(=O)N[C@@H](Cc1c[nH]c3ccccc13)C(=O)N1CCC[C@H]1C(=O)N[C@@H](C(C)C)C(=O)N2 | 3000 | 6000 |  | 
CC[C@H](C)[C@@H]1NC(=O)[C@@H]2CCCN2C(=O)[C@H](CC(C)C)NC(=O)CNC(=O)[C@H](CC(N)=O)NC(=O)[C@H](CCCNC(=N)N)NC(=O)[C@H]([C@@H](C)O)NC(=O)[C@@H]2CSSC[C@@H]3NC(=O)[C@H]([C@@H](C)O)NC(=O)CNC(=O)CNC(=O)[C@H](C(C)C)NC(=O)[C@@H](NC(=O)[C@@H](NC(=O)[C@H](CCC(=O)O)NC(=O)CN)[C@@H](C)O)CSSC[C@H](NC(=O)[C@H](CO)NC(=O)[C@H](CSSC[C@@H](C(=O)O)NC1=O)NC(=O)CNC(=O)[C@@H]1CCCN1C(=O)[C@H]([C@@H](C)O)NC(=O)[C@H](CC(N)=O)NC3=O)C(=O)N[C@@H](CO)C(=O)N[C@@H](Cc1c[nH]c3ccccc13)C(=O)N1CCC[C@H]1C(=O)N[C@@H](C(C)C)C(=O)N2 (stereo in doubt; form 1) | 4000 | 4000 |  | 
CC[C@H](C)[C@@H]1NC(=O)[C@@H]2CCCN2C(=O)[C@H](CC(C)C)NC(=O)CNC(=O)[C@H](CC(N)=O)NC(=O)[C@H](CCCNC(=N)N)NC(=O)[C@H]([C@@H](C)O)NC(=O)[C@@H]2CSSC[C@@H]3NC(=O)[C@H]([C@@H](C)O)NC(=O)CNC(=O)CNC(=O)[C@H](C(C)C)NC(=O)[C@@H](NC(=O)[C@@H](NC(=O)[C@H](CCC(=O)O)NC(=O)CN)[C@@H](C)O)CSSC[C@H](NC(=O)[C@H](CO)NC(=O)[C@H](CSSC[C@@H](C(=O)O)NC1=O)NC(=O)CNC(=O)[C@@H]1CCCN1C(=O)[C@H]([C@@H](C)O)NC(=O)[C@H](CC(N)=O)NC3=O)C(=O)N[C@@H](CO)C(=O)N[C@@H](Cc1c[nH]c3ccccc13)C(=O)N1CCC[C@H]1C(=O)N[C@@H](C(C)C)C(=O)N2 (stereo in doubt; form 2) |  |  | 6000 | 7000
CC[C@H](C)[C@@H]1NC(=O)[C@H](C)NC(=O)[C@H](CO)NC(=O)[C@H](CO)NC(=O)[C@H]([C@@H](C)CC)NC(=O)[C@@H]2CSSC[C@@H]3NC(=O)[C@H](C(C)C)NC(=O)[C@H](CCCCN)NC(=O)[C@H](CO)NC(=O)[C@H](CCCCN)NC(=O)[C@H](CSSC[C@H](NC(=O)[C@H](CO)NC(=O)[C@H](CCC(=O)O)NC(=O)CN)C(=O)N[C@@H](C(C)C)C(=O)N[C@@H](Cc4c[nH]c5ccccc45)C(=O)N[C@@H]([C@@H](C)CC)C(=O)N4CCC[C@H]4C(=O)N2)NC(=O)[C@H](CO)NC(=O)[C@H](CSSC[C@@H](C(=O)O)NC(=O)[C@@H]2CCCN2C(=O)[C@H]([C@@H](C)CC)NC(=O)CNC(=O)[C@H](CC(N)=O)NC(=O)[C@H](CCCNC(=N)N)NC(=O)[C@H](Cc2ccc(O)cc2)NC3=O)NC(=O)CNC1=O [CYCLOVIOLACIN O2] (H-GESCVWIPCISSAIGCSCKSKVCYRNGIPC-OH; disulfide 4-18, 9-23, 16-30) | 100 | 300 |  | 
COc1cccc2c1C(=O)c1c(O)c3c(c(O)c1C2=O)C[C@@](O)(C(=O)CO)C[C@@H]3O[C@H]1C[C@H](N)[C@H](O)[C@H](C)O1 [DOXORUBICIN] | 100 | 100 |  | 
CC[C@H](C)[C@@H]1NC(=O)[C@H](C)NC(=O)[C@H](CO)NC(=O)[C@H]([C@@H](C)O)NC(=O)[C@H]([C@@H](C)CC)NC(=O)[C@@H]2CSSC[C@@H]3NC(=O)[C@H](C(C)C)NC(=O)[C@H](CCCCN)NC(=O)[C@H](CO)NC(=O)[C@H](CCCCN)NC(=O)[C@H](CSSC[C@H](NC(=O)[C@H](CO)NC(=O)[C@H](CCC(=O)O)NC(=O)CN)C(=O)N[C@@H](C(C)C)C(=O)N[C@@H](Cc4c[nH]c5ccccc45)C(=O)N[C@@H]([C@@H](C)CC)C(=O)N4CCC[C@H]4C(=O)N2)NC(=O)[C@H](CO)NC(=O)[C@H](CSSC[C@@H](C(=O)O)NC(=O)[C@@H]2CCCN2C(=O)[C@H]([C@@H](C)CC)NC(=O)CNC(=O)[C@H](CC(N)=O)NC(=O)[C@H](CCCNC(=N)N)NC(=O)[C@H](Cc2ccc(O)cc2)NC3=O)NC(=O)CNC1=O [VITRI A] (H-GESCVWIPCITSAIGCSCKSKVCYRNGIPC-OH; disulfide 4-18, 9-23, 16-30) | 1000 | 600 |  | 

From ChEMBL document CHEMBL1146472, “Cytotoxic cyclotides from Viola tricolor” (J Nat Prod, 2004)
